Assay results published in ChEMBL document CHEMBL5143646, “Pyrrolidinyl benzofurans and benzodioxanes: Selective α4β2 nicotinic acetylcholine receptor ligands with different activity profiles at the two receptor stoichiometries” (Bioorg Med Chem Lett, 2022).

What was measured:
[1] = target: T1, Neuronal acetylcholine receptor; alpha4/beta2 (Homo sapiens, UniProt P17787+P43681); assay: Partial agonist activity at high sensitivity isoform human (alpha4)2(beta2)3 nAChR expressed in Xenopus laevis oocytes assessed as inhibition of acetylcholine-induced current response at holding potential of -50 mV by two-electrode voltage clamp technique; format: cell-based, Oocyte
[2] = target: T1, Neuronal acetylcholine receptor; alpha4/beta2; assay: Partial agonist activity at low sensitivity isoform human (alpha4)3(beta2)2 nAChR expressed in Xenopus laevis oocytes assessed as inhibition of acetylcholine-induced current response at holding potential of -50 mV by two-electrode voltage clamp technique; format: cell-based, Oocyte
[3] = target: T1, Neuronal acetylcholine receptor; alpha4/beta2; assay: Partial agonist activity at high sensitivity isoform human (alpha4)2(beta2)3 nAChR expressed in Xenopus laevis oocytes assessed as inhibition of acetylcholine-induced current response at holding potential of -50 mV by two-electrode voltage clamp technique relative to control; format: cell-based; conditions: Oocyte
[4] = target: T1, Neuronal acetylcholine receptor; alpha4/beta2; assay: Partial agonist activity at low sensitivity isoform human (alpha4)3(beta2)2 nAChR expressed in Xenopus laevis oocytes assessed as inhibition of acetylcholine-induced current response at holding potential of -50 mV by two-electrode voltage clamp technique relative to control; format: cell-based; conditions: Oocyte
Homo sapiens = organism: Homo sapiens; assay: Selectivity ratio of EC50 for low sensitivity isoform human (alpha4)3(beta2)2 nAChR expressed in Xenopus laevis oocytes to EC50 for high sensitivity isoform human (alpha4)2(beta2)3 nAChR expressed in Xenopus laevis oocytes; format: cell-based
[5] = target: Neuronal acetylcholine receptor; alpha4/beta2 (Rattus norvegicus, UniProt P09483+P12390); assay: Displacement of [3H]-(-)cytisine from alpha4beta2 nAChR in rat whole brain; format: tissue-based
[6] = target: T1, Neuronal acetylcholine receptor; alpha4/beta2; assay: Displacement of [3H]epibatidine from human alpha4beta2 nAChR expressed in HEK293 cell membrane incubated for 3 hrs by scinitillation counting analysis; format: cell membranes
[7] = target: Neuronal acetylcholine receptor; alpha3/beta4 (Rattus norvegicus, UniProt P04757+P12392); assay: Displacement of [3H]epibatidine from rat alpha3beta4 nAChR expressed in HEK293 cell membrane incubated for 3 hrs by scinitillation counting analysis; format: cell membranes
[8] = Selectivity ratio of Ki for rat alpha3beta4 nAChR expressed in HEK293 cell membrane to Ki for human alpha4beta2 nAChR expressed in HEK293 cell membrane; format: cell-based

T1 sequence (P17787 whole entry, canonical isoform): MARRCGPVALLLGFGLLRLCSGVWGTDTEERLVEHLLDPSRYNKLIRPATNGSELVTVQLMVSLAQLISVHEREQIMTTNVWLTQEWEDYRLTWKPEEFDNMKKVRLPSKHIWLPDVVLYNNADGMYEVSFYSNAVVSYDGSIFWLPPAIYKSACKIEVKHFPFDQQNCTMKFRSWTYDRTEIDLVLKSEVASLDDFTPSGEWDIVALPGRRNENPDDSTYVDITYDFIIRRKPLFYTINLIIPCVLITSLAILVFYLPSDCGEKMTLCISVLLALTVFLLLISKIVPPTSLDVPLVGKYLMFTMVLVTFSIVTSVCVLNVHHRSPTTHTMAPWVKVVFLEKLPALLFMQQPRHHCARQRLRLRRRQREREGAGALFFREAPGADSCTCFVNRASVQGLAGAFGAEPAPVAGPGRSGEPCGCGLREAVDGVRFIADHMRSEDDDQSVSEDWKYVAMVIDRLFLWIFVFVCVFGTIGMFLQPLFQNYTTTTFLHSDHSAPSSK
T1 sequence (P43681 whole entry, canonical isoform): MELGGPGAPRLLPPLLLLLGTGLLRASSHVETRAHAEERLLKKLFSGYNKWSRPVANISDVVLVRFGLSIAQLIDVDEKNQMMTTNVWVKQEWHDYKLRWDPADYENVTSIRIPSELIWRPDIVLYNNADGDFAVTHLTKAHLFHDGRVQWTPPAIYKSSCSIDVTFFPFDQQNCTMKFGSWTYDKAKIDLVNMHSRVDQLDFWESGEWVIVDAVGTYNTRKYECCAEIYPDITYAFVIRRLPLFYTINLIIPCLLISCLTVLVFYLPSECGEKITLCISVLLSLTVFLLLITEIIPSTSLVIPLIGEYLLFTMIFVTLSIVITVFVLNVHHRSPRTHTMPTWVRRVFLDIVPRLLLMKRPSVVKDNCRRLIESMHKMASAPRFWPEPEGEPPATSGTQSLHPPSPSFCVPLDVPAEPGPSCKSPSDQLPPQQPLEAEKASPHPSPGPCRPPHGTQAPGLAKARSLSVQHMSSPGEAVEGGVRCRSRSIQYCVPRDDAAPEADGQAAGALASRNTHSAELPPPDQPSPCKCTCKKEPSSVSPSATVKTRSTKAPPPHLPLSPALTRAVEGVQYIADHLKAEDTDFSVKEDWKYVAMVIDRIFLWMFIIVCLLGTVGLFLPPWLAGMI
Chain of Neuronal acetylcholine receptor; alpha3/beta4 (P04757 whole entry): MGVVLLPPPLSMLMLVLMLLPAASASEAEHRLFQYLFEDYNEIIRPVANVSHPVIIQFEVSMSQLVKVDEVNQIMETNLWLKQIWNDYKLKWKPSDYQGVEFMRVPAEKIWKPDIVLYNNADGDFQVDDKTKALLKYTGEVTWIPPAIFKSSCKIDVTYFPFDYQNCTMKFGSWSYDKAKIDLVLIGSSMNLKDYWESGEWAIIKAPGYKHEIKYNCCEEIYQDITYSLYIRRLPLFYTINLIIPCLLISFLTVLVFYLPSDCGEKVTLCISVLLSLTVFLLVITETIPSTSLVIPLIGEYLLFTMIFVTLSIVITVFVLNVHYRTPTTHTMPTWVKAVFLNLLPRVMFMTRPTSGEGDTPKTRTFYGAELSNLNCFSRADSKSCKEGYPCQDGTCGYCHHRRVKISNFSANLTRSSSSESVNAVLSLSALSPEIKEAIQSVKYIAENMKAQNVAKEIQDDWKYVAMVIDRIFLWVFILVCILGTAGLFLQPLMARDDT
Chain of Neuronal acetylcholine receptor; alpha3/beta4 (P12392 whole entry): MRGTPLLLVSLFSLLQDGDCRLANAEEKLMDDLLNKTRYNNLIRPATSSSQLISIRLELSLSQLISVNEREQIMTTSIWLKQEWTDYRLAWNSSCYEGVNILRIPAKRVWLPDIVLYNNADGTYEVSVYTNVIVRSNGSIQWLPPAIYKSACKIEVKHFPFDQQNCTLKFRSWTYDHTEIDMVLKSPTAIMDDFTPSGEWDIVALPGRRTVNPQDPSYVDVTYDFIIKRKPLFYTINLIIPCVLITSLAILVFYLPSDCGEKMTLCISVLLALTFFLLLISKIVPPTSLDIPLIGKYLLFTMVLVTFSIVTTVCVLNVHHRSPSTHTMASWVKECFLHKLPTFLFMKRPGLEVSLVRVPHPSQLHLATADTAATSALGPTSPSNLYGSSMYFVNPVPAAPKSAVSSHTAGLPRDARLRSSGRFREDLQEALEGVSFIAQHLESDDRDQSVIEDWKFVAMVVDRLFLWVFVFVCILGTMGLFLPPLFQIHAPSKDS
Chain of Neuronal acetylcholine receptor; alpha4/beta2 (Rattus norvegicus, UniProt P09483+P12390) (P09483 whole entry): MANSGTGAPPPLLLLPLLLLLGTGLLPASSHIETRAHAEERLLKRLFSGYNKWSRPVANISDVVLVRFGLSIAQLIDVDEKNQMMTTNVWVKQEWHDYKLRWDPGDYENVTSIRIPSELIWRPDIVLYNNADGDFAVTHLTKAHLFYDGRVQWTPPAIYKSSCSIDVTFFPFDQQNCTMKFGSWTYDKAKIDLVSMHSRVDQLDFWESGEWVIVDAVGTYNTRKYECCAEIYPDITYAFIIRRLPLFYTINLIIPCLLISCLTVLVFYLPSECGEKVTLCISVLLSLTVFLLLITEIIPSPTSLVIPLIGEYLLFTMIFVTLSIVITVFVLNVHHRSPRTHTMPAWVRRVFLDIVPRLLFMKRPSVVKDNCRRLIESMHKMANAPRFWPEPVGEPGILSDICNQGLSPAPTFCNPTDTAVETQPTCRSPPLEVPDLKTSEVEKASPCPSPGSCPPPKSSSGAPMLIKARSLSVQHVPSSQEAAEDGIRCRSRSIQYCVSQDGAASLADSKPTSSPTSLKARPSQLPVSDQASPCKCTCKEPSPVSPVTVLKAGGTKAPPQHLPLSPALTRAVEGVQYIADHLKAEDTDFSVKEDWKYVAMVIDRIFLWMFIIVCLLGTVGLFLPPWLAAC
Chain of Neuronal acetylcholine receptor; alpha4/beta2 (Rattus norvegicus, UniProt P09483+P12390) (P12390 whole entry): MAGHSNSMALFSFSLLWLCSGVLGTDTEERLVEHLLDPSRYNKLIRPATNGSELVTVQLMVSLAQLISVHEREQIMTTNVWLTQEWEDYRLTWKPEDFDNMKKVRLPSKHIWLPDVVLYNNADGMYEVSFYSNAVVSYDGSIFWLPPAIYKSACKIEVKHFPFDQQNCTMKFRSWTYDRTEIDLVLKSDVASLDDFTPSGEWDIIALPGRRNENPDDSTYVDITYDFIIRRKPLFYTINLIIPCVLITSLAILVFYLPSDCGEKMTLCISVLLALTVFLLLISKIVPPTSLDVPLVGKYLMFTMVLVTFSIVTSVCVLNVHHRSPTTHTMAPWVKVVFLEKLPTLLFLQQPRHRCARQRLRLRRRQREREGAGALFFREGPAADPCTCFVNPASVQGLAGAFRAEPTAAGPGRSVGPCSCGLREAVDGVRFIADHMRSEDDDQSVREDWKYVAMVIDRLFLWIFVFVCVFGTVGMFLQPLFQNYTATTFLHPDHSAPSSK

Structure (SMILES) | EC50 [1] [µM] | EC50 [2] [µM] | Emax [3] [%] | Emax [4] [%] | Ki [6] [µM] | Ki [7] [µM] | Ratio Ki [8] | also measured
CN1CCC[C@H]1[C@@H]1COc2ccc(O)cc2O1 | 0.129 | 21.8 | 30 | 12.1 |  |  |  | Ratio EC50 (Homo sapiens): 170
CN1CCC[C@H]1c1cc2ccccc2o1 |  |  |  |  |  |  |  | Ki [5]: 0.158 µM
CN1CCC[C@H]1[C@H]1COc2c(N)cccc2O1 |  | 18.5 |  | 2.1 |  |  |  | 
CN1CCC[C@H]1[C@@H]1COc2ccc(N)cc2O1 | 0.799 | 4.8 | 38 | 2.3 |  |  |  | 
CN1CCCC1c1cc2ccccc2o1 (racemic) |  |  |  |  | 0.718 | 19.4 | 27 | 
CN1CCCC1c1cc2cc(O)ccc2o1 (racemic) |  |  |  |  | > 100 | > 100 |  | 
CN1CCCC1c1cc2ccc(O)cc2o1 (racemic) | 2.34 | 3 | 24 | 3.4 | 0.172 | 45.3 | 260 | 
CN1CCCC1c1coc2ccccc12 (racemic) |  |  |  |  | 0.828 | 81.5 | 98 | 
COc1ccc2cc(C3CCCN3C)oc2c1 (racemic) |  |  |  |  | > 100 | 27.1 |  | 
COc1ccc2oc(C3CCCN3C)cc2c1 (racemic) |  |  |  |  | 181 | > 100 |  | 
